Patent publication US20240269139A1, “COMPOUNDS FOR TARGETED PROTEIN DEGRADATION OF KINASES” (DANA-FARBER CANCER INSTITUTE, INC., priority 2020, published 2024)
Like-named read-outs stand apart in the source and are kept apart here.

Experiments:
Type in all cases: cell-based
[1] = molecular target: T1, protein kinases (human kinome) (Homo sapiens, UniProt O75385); conditions: for logFC: ULK1 (O75385) protein abundance, degrader vs DMSO, down; for logFC ULK1: ULK1 O75385
T1 sequence (O75385 1-1050): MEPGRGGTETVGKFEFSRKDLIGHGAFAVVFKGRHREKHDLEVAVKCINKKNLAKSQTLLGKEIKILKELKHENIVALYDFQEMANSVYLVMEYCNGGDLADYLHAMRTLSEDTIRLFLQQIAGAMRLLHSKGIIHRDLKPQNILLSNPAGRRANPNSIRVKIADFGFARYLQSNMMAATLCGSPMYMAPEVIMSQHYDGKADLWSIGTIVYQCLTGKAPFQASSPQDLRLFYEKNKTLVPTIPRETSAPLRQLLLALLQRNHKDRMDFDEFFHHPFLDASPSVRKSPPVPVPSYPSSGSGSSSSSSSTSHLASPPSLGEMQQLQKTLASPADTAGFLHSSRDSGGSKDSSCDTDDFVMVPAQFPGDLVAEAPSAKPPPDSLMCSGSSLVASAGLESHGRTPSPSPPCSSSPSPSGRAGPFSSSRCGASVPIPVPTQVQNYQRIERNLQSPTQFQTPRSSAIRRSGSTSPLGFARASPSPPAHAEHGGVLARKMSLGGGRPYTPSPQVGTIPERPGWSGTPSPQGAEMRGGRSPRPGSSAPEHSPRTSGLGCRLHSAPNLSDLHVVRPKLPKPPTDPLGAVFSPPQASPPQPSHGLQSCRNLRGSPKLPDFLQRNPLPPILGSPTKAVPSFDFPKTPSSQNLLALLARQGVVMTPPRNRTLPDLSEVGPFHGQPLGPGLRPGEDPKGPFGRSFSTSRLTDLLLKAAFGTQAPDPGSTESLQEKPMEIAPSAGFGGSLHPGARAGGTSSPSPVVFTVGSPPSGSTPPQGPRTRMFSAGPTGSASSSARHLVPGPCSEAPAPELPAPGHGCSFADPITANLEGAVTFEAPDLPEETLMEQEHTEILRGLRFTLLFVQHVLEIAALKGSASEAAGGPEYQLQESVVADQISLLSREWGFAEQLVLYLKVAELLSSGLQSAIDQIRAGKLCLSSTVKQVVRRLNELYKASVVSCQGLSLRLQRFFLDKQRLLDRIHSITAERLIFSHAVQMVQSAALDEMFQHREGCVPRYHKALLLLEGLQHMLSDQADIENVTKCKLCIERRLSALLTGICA

[2] = tested on: protein kinases (human kinome); conditions: for logFC MAPK8: MAPK8 P45983-4; for logFC PTK2B: accession Q14289-2; for kinases the bifunctional compound degrades: as stated for the structure in the embodiments; for Kinase hits: kinases significantly downregulated vs DMSO (fold change cutoff −1.25, P-value<0.01), ≤8 h, 0.1-5 μM degrader, 7 cell lines; for Total no. kinase hits: number of degraded kinases per library compound
[3] = molecular target: protein kinases (human kinome) (Homo sapiens, UniProt P11802); conditions: experiment wp168
[4] = molecular target: protein kinases (human kinome) (Homo sapiens, UniProt P51451); conditions: for logFC BLK: BLK (P51451), direction down, experiment wp168; for logFC of BLK (P51451): Experiment wp168, down
[5] = Experiment wp168, direction down
[6] = MAPK14, accession Q16539-2, experiment wp168, direction of change down
[7] = MAPK14 Q16539-2, experiment wp168
[8] = PTK2B (Q14289-2), experiment wp168, direction down
[9] = experiment wp168, direction of change down
[10] = AURKB Q96GD4-5, experiment wp134

Sequence of protein kinases (human kinome) (Homo sapiens, UniProt P51451) (P51451 whole entry): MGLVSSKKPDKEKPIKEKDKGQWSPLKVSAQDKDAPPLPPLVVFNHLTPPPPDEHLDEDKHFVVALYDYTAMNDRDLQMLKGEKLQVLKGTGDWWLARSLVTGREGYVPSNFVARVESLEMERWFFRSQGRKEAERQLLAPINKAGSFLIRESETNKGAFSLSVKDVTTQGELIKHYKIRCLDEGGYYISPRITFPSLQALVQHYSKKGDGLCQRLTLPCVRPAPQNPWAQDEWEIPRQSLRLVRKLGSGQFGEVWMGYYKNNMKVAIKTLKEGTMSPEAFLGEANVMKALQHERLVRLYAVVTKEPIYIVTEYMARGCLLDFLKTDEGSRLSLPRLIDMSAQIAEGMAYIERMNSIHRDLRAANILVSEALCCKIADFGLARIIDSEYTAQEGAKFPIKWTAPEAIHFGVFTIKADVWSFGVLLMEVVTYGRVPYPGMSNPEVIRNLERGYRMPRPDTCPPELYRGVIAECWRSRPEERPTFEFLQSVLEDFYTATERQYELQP
Sequence of protein kinases (human kinome) (Homo sapiens, UniProt P11802) (P11802 whole entry): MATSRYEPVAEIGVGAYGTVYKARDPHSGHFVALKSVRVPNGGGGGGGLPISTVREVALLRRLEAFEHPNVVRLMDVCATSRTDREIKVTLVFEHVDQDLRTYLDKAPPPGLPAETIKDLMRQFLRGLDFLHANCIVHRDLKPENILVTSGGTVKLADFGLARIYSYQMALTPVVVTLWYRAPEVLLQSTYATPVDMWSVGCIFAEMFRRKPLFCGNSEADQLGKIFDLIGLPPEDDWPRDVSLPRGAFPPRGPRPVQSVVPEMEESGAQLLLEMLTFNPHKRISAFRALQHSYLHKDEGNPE

| Compound | logFC [1] | logFC ULK1 ([1]; experiment wp168) | logFC MAP3K20 (Q9NYL2-2) ([2]; Experiment wp168) | logFC MAPK8 (P45983-4) [2, 5] | logFC MAPK8 ([2]; experiment wp168) | logFC MAPK14 [2, 6] | logFC MAPK14 [2, 7] | logFC [2, 8] | logFC PTK2B [2, 9] | kinases the bifunctional compound degrades [2] | logFC MAP3K20 (Q9NYL2-2) ([2]; experiment wp168) | Kinase hits [2] | Total no. kinase hits [2] | logFC CDK4 (P11802) [3] | logFC BLK [4] | logFC of BLK (P51451) [4] | other results |
| --- | --- | --- | --- | --- | --- | --- | --- | --- | --- | --- | --- | --- | --- | --- | --- | --- | --- |
| Cc1ccc(NC(=O)c2cccc(C(F)(F)F)c2)cc1N1Cc2cnc(Nc3ccc(N4CCN(CCCOc5cccc6c5C(=O)N(C5CCC(=O)NC5=O)C6=O)CC4)nc3)nc2N(C)C1=O (stereo not shown) [DB0662] | −0.3582 | −0.3582 | −1.006 | −0.8961 | −0.8961 | −1.34 | −1.34 | −3.245 | −3.245 | ABL1, ABL2, BLK, BUB1, CDK11B, CDK4, CSK, EPHB6, FER. FYN, GAK, LCK, LIMK1, MAP3K1, MAP3K11, MAP3K20, MAP4K1, MAPK14, MAPK8, MAPK9, MAPKAPK2, MKNK2, PAK4, PDIK1L, PTK2B, RPS6KA1, RPS6KA3, SIK2, SRC, TNK2, UHMK1, ULK1, and YES1 | −1.006 | ABL1, ABL2, BLK, BUB1, CDK11B, CDK4, CSK, EPHB6, FER, FYN, GAK, LCK, LIMK1, MAP3K1, MAP3K11, MAP3K20, MAP4K1, MAPK14, MAPK8, MAPK9, MAPKAPK2, MKNK2, PAK4, PDIK1L, PTK2B, RPS6KA1, RPS6KA3, SIK2, SRC, TNK2, UHMK1, ULK1,YES1 | 33 | −0.9883 | −1.652 | −1.652 | logFC FYN ([2]; Accession P06241-2, experiment wp168): −0.5636; logFC FYN ([2]; FYN P06241-2, experiment wp168): −0.5636 |
| Cc1ncsc1-c1ccc([C@H](C)NC(=O)[C@@H]2C[C@@H](O)CN2C(=O)[C@@H](NC(=O)CCCCCN2CCc3cc(Nc4ncc(C5CC5)c(NCCCNC(=O)C5CCC5)n4)ccc3C2)C(C)(C)C)cc1 [BSJ.05.026] | −0.4424 |  |  |  |  |  |  |  |  |  |  |  |  |  |  |  | logFC ULK1 ([1]; experiment wp195): −0.4424; logFC ([2]; MARK3 (P27448-5), experiment wp195): −0.8242; logFC MARK3 (P27448-5) ([2]; experiment wp195, direction of change down): −0.8242 |
| Cc1ccc(NC(=O)c2cccc(C(F)(F)F)c2)cc1N1Cc2cnc(Nc3ccc(N4CCN(CCCCC(=O)N[C@H](C(=O)N5C[C@H](O)C[C@H]5C(=O)N[C@@H](C)c5ccc(-c6scnc6C)cc5)C(C)(C)C)CC4)nc3)nc2N(C)C1=O [DB1113] | −0.352 | −0.352 | −0.9693 | −0.3642 | −0.3642 | −1.588 | −1.588 | −1.705 | −1.705 | ABL1, ABL2, BLK, CDK11B, CDK4, CSK, EPHA3, FER, GAK, LIMK1, MAP3K20, MAP4K1, MAP4K2, MAP4K3, MAP4K5, MAPK14, MAPK7, MAPK8, MAPK9, MAPKAPK2, MAPKAPK3, NLK, PDIK1L, PTK2B, RIPK1, RPS6KA1, RPS6KA3, SIK2, SIK3, STK35, TNK2, and ULK1 | −0.9693 | ABL1, ABL2, BLK, CDK11B, CDK4, CSK, EPHA3, FER, GAK, LIMK1, MAP3K20, MAP4K1, MAP4K2, MAP4K3, MAP4K5, MAPK14, MAPK7, MAPK8, MAPK9, MAPKAPK2, MAPKAPK3, NLK, PDIK1L, PTK2B, RIPK1, RPS6KA1, RPS6KA3, SIK2, SIK3, STK35, TNK2, ULK1 | 31 | −0.4373 | −1.32 | −1.32 |  |
| O=C(COc1cccc2c1C(=O)N(C1CCC(=O)NC1=O)C2=O)NCCCCCCCN1CCc2cc(Nc3ncc(C4CC4)c(NCCCNC(=O)C4CCC4)n3)ccc2C1 (stereo not shown) [BSJ.04.178] | −1.683 |  |  |  |  |  |  |  |  |  |  |  |  |  |  |  | logFC ULK1 ([1]; experiment wp134): −1.683; logFC [2, 10]: −0.5074; logFC AURKB [2, 10]: −0.5074; logFC ([2]; CDK9 (P50750-2) protein abundance, degrader vs DMSO, down): −1.43; logFC ([2]; MARK3 (P27448-5), experiment wp134): −0.4977; logFC CDK9 (P50750-2) ([2]; experiment wp134): −1.43; logFC MARK3 (P27448-5) ([2]; experiment wp134, direction of change down): −0.4977 |
